Assay results: the supplement of paper PMC6045584
± gives the standard deviation of the averaged measurements.

Legend:
[1] = compound: CC(=O)NCC(=O)N1[C@@H]2CC[C@H]1c1ccc(Nc3ncc(C(F)(F)F)c(NC4CCC4)n3)cc12; assay: surviving fraction relative to DMSO-only wells; higher = less growth inhibition; conditions: exposure time: 5 days
Summary of the method: (§1)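 Viability values are CellTiter-Glo luminescence readings, given as surviving fraction against the median of DMSO-only wells. The readings were taken after 10 minutes at room temperature, following five days of continuous exposure to inhibitors at 0.5, 1, 5, 10, 50, 100, 500 and 1000 nM that began 24 hours after log-phase tumour cell lines were seeded at 250–500 cells per well in 384-well plates. Every line was screened three times and kept only if replicate Pearson r >0.7 and median Z' >0.3.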

[2] = compound: T1, CC(=O)O[C@H]1C(=O)[C@@]2(C)[C@H]([C@H](OC(=O)c3ccccc3)[C@]3(O)C[C@H](OC(=O)[C@H](O)[C@@H](NC(=O)c4ccccc4)c4ccccc4)C(C)=C1C3(C)C)[C@]1(OC(C)=O)CO[C@@H]1C[C@@H]2O [PACLITAXEL]; assay: as above; conditions: exposure time: 5 days
Summary of the method: as §1

[3] = compound: CC(=O)c1c(C)c2cnc(Nc3ccc(N4CCNCC4)cn3)nc2n(C2CCCC2)c1=O; assay: as above; conditions: exposure time: 5 days
Summary of the method: as §1

[4] = compound: T2, CC[C@@]1(O)C(=O)OCc2c1cc1n(c2=O)Cc2cc3ccccc3nc2-1 [CAMPTOTHECIN]; assay: as above; conditions: exposure time: 5 days
Summary of the method: as §1

[5] = compound: T3, COCC[n+]1c2c(n(Cc3cnccn3)c1C)C(=O)c1ccccc1C2=O [YM155]; assay: as above; conditions: exposure time: 5 days
Summary of the method: as §1

[6] = compound: T4, COc1cc2ncnc(Nc3ccc(F)c(Cl)c3)c2cc1OCCCN1CCOCC1 [GEFITINIB]; assay: as above; conditions: exposure time: 5 days
Summary of the method: as §1

[7] = compound: T5, C[C@]1(O)C[C@@H](c2nc(-c3ccc4ccc(-c5ccccc5)nc4c3)c3c(N)nccn32)C1 [OSI-906]; assay: as above; conditions: exposure time: 5 days
Summary of the method: as §1

[8] = compound: T6, Cc1ccc(-c2cc(C(F)(F)F)nn2-c2ccc(S(N)(=O)=O)cc2)cc1 [CELECOXIB]; assay: as above; conditions: exposure time: 5 days
Summary of the method: as §1

[9] = compound: T7, O=C(O)C1(C(=O)O)CCC1.[NH2-].[NH2-].[Pt+2] [CARBOPLATIN]; assay: as above; conditions: exposure time: 5 days
Summary of the method: as §1

[10] = compound: CC(=O)NCC(=O)N1[C@@H]2CC[C@H]1c1ccc(Nc3ncc(C(F)(F)F)c(NC4CCC4)n3)cc12; assay: area under dose-response curve of surviving fraction (unscaled, Aref=0) (surviving fraction x log10(nM)); higher = more resistant; conditions: exposure time: 5 days; dose range 0.5-1000 nM
Summary of the method: (§2)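 Tumour cell lines in 384-well plates were exposed for five days to eight inhibitor concentrations from 0.5 to 1000 nM. Viability was read by CellTiter-Glo luminescence, normalised to DMSO-only wells, in three screens per line. Dose-response survival curves were fitted to surviving fractions by 3-parameter logistic regression in the drc R package. Area under the curve is the unscaled activity area (Aref = 0) over log10 dose.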

[11] = compound: T1, PACLITAXEL; assay: as above; conditions: exposure time: 5 days; dose range 0.5-1000 nM
Summary of the method: as §2

[12] = compound: T2, CAMPTOTHECIN; assay: as above; conditions: exposure time: 5 days; dose range 0.5-1000 nM
Summary of the method: as §2

[13] = compound: T3, YM155; assay: as above; conditions: exposure time: 5 days; dose range 0.5-1000 nM
Summary of the method: as §2

[14] = compound: T4, GEFITINIB; assay: as above; conditions: exposure time: 5 days; dose range 0.5-1000 nM
Summary of the method: as §2

[15] = compound: T5, OSI-906; assay: as above; conditions: exposure time: 5 days; dose range 0.5-1000 nM
Summary of the method: as §2

[16] = compound: T6, CELECOXIB; assay: as above; conditions: exposure time: 5 days; dose range 0.5-1000 nM
Summary of the method: as §2

[17] = compound: T7, CARBOPLATIN; assay: as above; conditions: exposure time: 5 days; dose range 0.5-1000 nM
Summary of the method: as §2

## S68 BREAST
[1]; 0.5 nM
  surviving fraction: 0.875 ± 0.16
[1]; 1 nM
  surviving fraction: 0.86 ± 0.083
[1]; 5 nM
  surviving fraction: 0.973 ± 0.18
[1]; 10 nM
  surviving fraction: 0.946 ± 0.11
[1]; 50 nM
  surviving fraction: 0.487 ± 0.057
[1]; 100 nM
  surviving fraction: 0.472 ± 0.024
[1]; 500 nM
  surviving fraction: 0.529 ± 0.081
[1]; 1000 nM
  surviving fraction: 0.466 ± 0.13
[2]; 0.5 nM
  surviving fraction: 0.815 ± 0.052
[2]; 1 nM
  surviving fraction: 0.575 ± 0.13
[2]; 5 nM
  surviving fraction: 0.197 ± 0.045
[2]; 10 nM
  surviving fraction: 0.134 ± 0.026
[2]; 50 nM
  surviving fraction: 0.14 ± 0.0047
[2]; 100 nM
  surviving fraction: 0.144 ± 0.025
[2]; 500 nM
  surviving fraction: 0.114 ± 0.0076
[2]; 1000 nM
  surviving fraction: 0.122 ± 0.0061
[3]; 0.5 nM
  surviving fraction: 0.75 ± 0.08
[3]; 1 nM
  surviving fraction: 0.809 ± 0.025
[3]; 5 nM
  surviving fraction: 1.13 ± 0.062
[3]; 10 nM
  surviving fraction: 1.18 ± 0.033
[3]; 50 nM
  surviving fraction: 1.01 ± 0.091
[3]; 100 nM
  surviving fraction: 1.19 ± 0.2
[3]; 500 nM
  surviving fraction: 0.744 ± 0.043
[3]; 1000 nM
  surviving fraction: 0.79 ± 0.29
[4]; 0.5 nM
  surviving fraction: 0.576 ± 0.087
[4]; 1 nM
  surviving fraction: 0.544 ± 0.073
[4]; 5 nM
  surviving fraction: 0.442 ± 0.11
[4]; 10 nM
  surviving fraction: 0.342 ± 0.041
[4]; 50 nM
  surviving fraction: 0.284 ± 0.045
[4]; 100 nM
  surviving fraction: 0.218 ± 0.021
[4]; 500 nM
  surviving fraction: 0.0747 ± 0.012
[4]; 1000 nM
  surviving fraction: 0.0687 ± 0.0057
[5]; 0.5 nM
  surviving fraction: 0.884 ± 0.076
[5]; 1 nM
  surviving fraction: 1.1 ± 0.45
[5]; 5 nM
  surviving fraction: 0.674 ± 0.092
[5]; 10 nM
  surviving fraction: 0.586 ± 0.038
[5]; 50 nM
  surviving fraction: 0.143 ± 0.016
[5]; 100 nM
  surviving fraction: 0.0627 ± 0.0061
[5]; 500 nM
  surviving fraction: 0.0267 ± 0.00058
[5]; 1000 nM
  surviving fraction: 0.0277 ± 0.0015
[6]; 0.5 nM
  surviving fraction: 0.936 ± 0.095
[6]; 1 nM
  surviving fraction: 0.744 ± 0.17
[6]; 5 nM
  surviving fraction: 1.11 ± 0.34
[6]; 10 nM
  surviving fraction: 1.09 ± 0.069
[6]; 50 nM
  surviving fraction: 1.11 ± 0.23
[6]; 100 nM
  surviving fraction: 0.762 ± 0.093
[6]; 500 nM
  surviving fraction: 0.728 ± 0.1
[6]; 1000 nM
  surviving fraction: 0.687 ± 0.22
[7]; 0.5 nM
  surviving fraction: 0.611 ± 0.24
[7]; 1 nM
  surviving fraction: 0.727 ± 0.17
[7]; 5 nM
  surviving fraction: 0.797 ± 0.27
[7]; 10 nM
  surviving fraction: 0.721 ± 0.37
[7]; 50 nM
  surviving fraction: 1.19 ± 0.28
[7]; 100 nM
  surviving fraction: 1.06 ± 0.21
[7]; 500 nM
  surviving fraction: 0.828 ± 0.19
[7]; 1000 nM
  surviving fraction: 0.756 ± 0.05
[8]; 0.5 nM
  surviving fraction: 1.18 ± 0.21
[8]; 1 nM
  surviving fraction: 1.07 ± 0.24
[8]; 5 nM
  surviving fraction: 1.26 ± 0.17
[8]; 10 nM
  surviving fraction: 1.19 ± 0.15
[8]; 50 nM
  surviving fraction: 1 ± 0.29
[8]; 100 nM
  surviving fraction: 1.21 ± 0.15
[8]; 500 nM
  surviving fraction: 0.95 ± 0.34
[8]; 1000 nM
  surviving fraction: 1.2 ± 0.11
[9]; 0.5 nM
  surviving fraction: 1.08 ± 0.28
[9]; 1 nM
  surviving fraction: 1.01 ± 0.082
[9]; 5 nM
  surviving fraction: 0.9 ± 0.16
[9]; 10 nM
  surviving fraction: 1.4 ± 0.15
[9]; 50 nM
  surviving fraction: 1.22 ± 0.6
[9]; 100 nM
  surviving fraction: 1.14 ± 0.38
[9]; 500 nM
  surviving fraction: 1.11 ± 0.21
[9]; 1000 nM
  surviving fraction: 1.29 ± 0.11
[10]
  area under dose-response curve: 2.38
[11]
  area under dose-response curve: 0.758
[12]
  area under dose-response curve: 1.05
[13]
  area under dose-response curve: 1.4
[14]
  area under dose-response curve: 2.99
[15]
  area under dose-response curve: 2.83
[16]
  area under dose-response curve: 3.75
[17]
  area under dose-response curve: 3.8
